In brackets after ≈: the same amount, converted by molar mass.
Tests used:
Format in all cases: functional
[1] = system: Staphylococcus aureus; assay: Antimicrobial activity against methicillin-resistant Staphylococcus aureus Chaoyang clinical isolate after 16 hrs by broth microdilution method
[2] = system: Staphylococcus aureus; assay: Antimicrobial activity against Staphylococcus aureus ATCC 6538 after 16 hrs by broth microdilution method; conditions: ATCC 6538, 16 h
[3] = system: Bacillus spizizenii; assay: Antimicrobial activity against Bacillus subtilis ATCC 6633 after 16 hrs by broth microdilution method; conditions: ATCC 6633, 16 h
[4] = system: Staphylococcus aureus; assay: Antimicrobial activity against methicillin-resistant Staphylococcus aureus 309-4 clinical isolate after 16 hrs by broth microdilution method; conditions: 309-4, 16 h
[5] = system: Staphylococcus aureus; assay: Antimicrobial activity against methicillin-resistant Staphylococcus aureus 309-6 clinical isolate after 16 hrs by broth microdilution method; conditions: 309-6, 16 h
[6] = system: Staphylococcus aureus; assay: Antimicrobial activity against methicillin-resistant Staphylococcus aureus 6-42 clinical isolate after 16 hrs by broth microdilution method; conditions: 6-42, 16 h
[7] = system: Staphylococcus aureus; assay: Antimicrobial activity against methicillin-resistant Staphylococcus aureus 6281 clinical isolate after 16 hrs by broth microdilution method; conditions: Staphylococcus aureus, 6281, 16 h
[8] = system: Klebsiella pneumoniae; assay: Antimicrobial activity against Klebsiella pneumoniae KP-249 clinical isolate after 16 hrs by broth microdilution method; conditions: KP-249, 16 h
[9] = system: Staphylococcus aureus; assay: Antimicrobial activity against methicillin-resistant Staphylococcus aureus 8-21 clinical isolate after 16 hrs by broth microdilution method; conditions: 8-21, 16 h
[10] = system: Enterococcus faecalis; assay: Antimicrobial activity against Enterococcus faecalis VRE-309 after 16 hrs by broth microdilution method; conditions: VRE-309, 16 h
[11] = system: Staphylococcus aureus; assay: Antimicrobial activity against methicillin-resistant Staphylococcus aureus 309-1 clinical isolate after 16 hrs by broth microdilution method; conditions: 309-1, 16 h
[12] = system: Staphylococcus aureus; assay: Antimicrobial activity against methicillin-resistant Staphylococcus aureus 309-7 clinical isolate after 16 hrs by broth microdilution method; conditions: 309-7, 16 h
[13] = system: Pseudomonas aeruginosa; assay: Antimicrobial activity against Pseudomonas aeruginosa PAO1 after 16 hrs by broth microdilution method; conditions: PAO1, 16 h
[14] = system: Staphylococcus aureus; assay: Antimicrobial activity against methicillin-resistant Staphylococcus aureus 8-24 clinical isolate after 16 hrs by broth microdilution method; conditions: 8-24, 16 h
[15] = system: Staphylococcus aureus; assay: Antimicrobial activity against methicillin-resistant Staphylococcus aureus 309-3 clinical isolate after 16 hrs by broth microdilution method; conditions: 309-3, 16 h
[16] = system: Staphylococcus aureus; assay: Antimicrobial activity against methicillin-resistant Staphylococcus aureus 309-8 clinical isolate after 16 hrs by broth microdilution method; conditions: 309-8, 16 h
[17] = system: Enterococcus faecalis; assay: Antimicrobial activity against vancomycin-susceptible Enterococcus faecalis after 16 hrs by broth microdilution method

`O=C1Nc2ccccc2/C1=N/NC(=S)Nc1ccccc1` showed an MIC [1] of 3.12 µg/mL (≈ 10.5 µM), an MIC [2] of 3.12 µg/mL (≈ 10.5 µM) and an MIC [3] of 1.56 µg/mL (≈ 5.26 µM).

`O=C1Nc2ccccc2/C1=N/NC(=S)Nc1ccc(F)cc1` was tested, and the MIC [1] was 3.12 µg/mL (≈ 9.93 µM), the MIC [2] was 6.25 µg/mL (≈ 19.9 µM) and the MIC [3] was 1.56 µg/mL (≈ 4.96 µM).

For `O=C1Nc2ccc(Br)cc2/C1=N/NC(=S)Nc1ccccc1`, the MIC [1] was 6.25 µg/mL (≈ 16.7 µM), the MIC [2] was 6.25 µg/mL (≈ 16.7 µM) and the MIC [3] was at most 0.78 µg/mL.

`O=C1Nc2ccc([N+](=O)[O-])cc2/C1=N/NC(=S)Nc1ccc(F)cc1` gave an MIC [1] of 12.5 µg/mL (≈ 34.8 µM), an MIC [2] of 6.25 µg/mL (≈ 17.4 µM) and an MIC [3] of 25 µg/mL (≈ 69.6 µM).

In the case of `O=C1Nc2ccc(F)cc2/C1=N/NC(=S)Nc1ccc(F)cc1`, the MIC [1] is reported as 25 µg/mL (≈ 75.2 µM), the MIC [2] is reported as 25 µg/mL (≈ 75.2 µM) and the MIC [3] is reported as 25 µg/mL (≈ 75.2 µM).

`O=C1Nc2c(F)cccc2/C1=N/NC(=S)Nc1ccccc1` was tested, and the MIC [1] was 1.56 µg/mL (≈ 4.96 µM), the MIC [2] was 3.12 µg/mL (≈ 9.93 µM) and the MIC [3] was at most 0.78 µg/mL.

For `O=C1Nc2ccc(Cl)cc2/C1=N/NC(=S)Nc1ccc(F)cc1`, the MIC [1] was 3.12 µg/mL (≈ 8.95 µM), the MIC [2] was 12.5 µg/mL (≈ 35.8 µM) and the MIC [3] was 6.25 µg/mL (≈ 17.9 µM).

`O=C1Nc2c(Br)cc([N+](=O)[O-])cc2/C1=N/NC(=S)Nc1ccc(F)cc1` was tested, and the MIC [1] was 3.12 µg/mL (≈ 7.12 µM), the MIC [2] was 1.56 µg/mL (≈ 3.56 µM) and the MIC [3] was at most 0.78 µg/mL.

`O=C1Nc2c(Br)cc(Br)cc2/C1=N/NC(=S)Nc1ccc(F)cc1` was tested, and the MIC [1] was 6.25 µg/mL (≈ 13.2 µM), the MIC [2] was 12.5 µg/mL (≈ 26.5 µM) and the MIC [3] was 1.56 µg/mL (≈ 3.3 µM).

Compound `O=C1Nc2c(F)cccc2/C1=N/NC(=S)Nc1cccc(F)c1` has an MIC [4] of 0.39 µg/mL (≈ 1.17 µM), an MIC [5] of 1.56 µg/mL (≈ 4.69 µM) and an MIC [6] of 0.39 µg/mL (≈ 1.17 µM). It also gave an MIC [7] of 1.56 µg/mL (≈ 4.69 µM), an MIC [8] of over 100 µg/mL and an MIC [9] of 0.78 µg/mL (≈ 2.35 µM). It also gave an MIC [10] of 1.56 µg/mL (≈ 4.69 µM), an MIC [11] of 0.78 µg/mL (≈ 2.35 µM) and an MIC [1] of 0.39 µg/mL (≈ 1.17 µM). It also gave an MIC [12] of 0.39 µg/mL (≈ 1.17 µM), an MIC [2] of 0.78 µg/mL (≈ 2.35 µM) and an MIC [13] of over 100 µg/mL. The MIC [14] was 0.78 µg/mL (≈ 2.35 µM), the MIC [15] was 0.78 µg/mL (≈ 2.35 µM) and the MIC [16] was 0.78 µg/mL (≈ 2.35 µM). For the same compound, the MIC [3] was at most 0.78 µg/mL.

Compound `O=C1Nc2c(I)cccc2/C1=N/NC(=S)Nc1ccccc1F` has an MIC [17] of 12.5 µg/mL (≈ 28.4 µM), an MIC [4] of 1.56 µg/mL (≈ 3.54 µM) and an MIC [5] of 3.12 µg/mL (≈ 7.09 µM). It also gave an MIC [6] of 0.78 µg/mL (≈ 1.77 µM), an MIC [7] of 6.25 µg/mL (≈ 14.2 µM) and an MIC [8] of over 100 µg/mL. It also gave an MIC [9] of 1.56 µg/mL (≈ 3.54 µM), an MIC [10] of 6.25 µg/mL (≈ 14.2 µM) and an MIC [11] of 1.56 µg/mL (≈ 3.54 µM). For the same compound, the MIC [1] was 0.78 µg/mL (≈ 1.77 µM), the MIC [12] was 0.78 µg/mL (≈ 1.77 µM) and the MIC [2] was 3.12 µg/mL (≈ 7.09 µM). The MIC [13] was over 100 µg/mL, the MIC [14] was 1.56 µg/mL (≈ 3.54 µM) and the MIC [15] was 3.12 µg/mL (≈ 7.09 µM). For the same compound, the MIC [16] was 1.56 µg/mL (≈ 3.54 µM) and the MIC [3] was at most 0.78 µg/mL.

`COc1ccccc1NC(=S)N/N=C1\C(=O)Nc2c(I)cccc21` showed an MIC [17] of over 100 µg/mL, an MIC [4] of 12.5 µg/mL (≈ 27.6 µM) and an MIC [5] of 25 µg/mL (≈ 55.3 µM). The MIC [6] was 6.25 µg/mL (≈ 13.8 µM), the MIC [7] was 25 µg/mL (≈ 55.3 µM) and the MIC [8] was over 100 µg/mL. For the same compound, the MIC [9] was 12.5 µg/mL (≈ 27.6 µM), the MIC [10] was over 100 µg/mL and the MIC [11] was 12.5 µg/mL (≈ 27.6 µM). For the same compound, the MIC [1] was 6.25 µg/mL (≈ 13.8 µM), the MIC [12] was 6.25 µg/mL (≈ 13.8 µM) and the MIC [2] was over 100 µg/mL. For the same compound, the MIC [13] was over 100 µg/mL, the MIC [14] was 12.5 µg/mL (≈ 27.6 µM) and the MIC [15] was 25 µg/mL (≈ 55.3 µM). For the same compound, the MIC [16] was 12.5 µg/mL (≈ 27.6 µM) and the MIC [3] was 1.56 µg/mL (≈ 3.45 µM).

`Cc1ccccc1NC(=S)N/N=C1\C(=O)Nc2c(I)cccc21` was tested, and the MIC [17] was 12.5 µg/mL (≈ 28.7 µM), the MIC [4] was 1.56 µg/mL (≈ 3.58 µM) and the MIC [5] was 6.25 µg/mL (≈ 14.3 µM). It also gave an MIC [6] of 0.78 µg/mL (≈ 1.79 µM), an MIC [7] of 6.25 µg/mL (≈ 14.3 µM) and an MIC [8] of over 100 µg/mL. It also gave an MIC [9] of 1.56 µg/mL (≈ 3.58 µM), an MIC [10] of 6.25 µg/mL (≈ 14.3 µM) and an MIC [11] of 3.12 µg/mL (≈ 7.15 µM). It also gave an MIC [1] of 0.78 µg/mL (≈ 1.79 µM), an MIC [12] of 1.56 µg/mL (≈ 3.58 µM) and an MIC [2] of 3.12 µg/mL (≈ 7.15 µM). For the same compound, the MIC [13] was over 100 µg/mL, the MIC [14] was 3.12 µg/mL (≈ 7.15 µM) and the MIC [15] was 3.12 µg/mL (≈ 7.15 µM). For the same compound, the MIC [16] was 3.12 µg/mL (≈ 7.15 µM) and the MIC [3] was at most 0.78 µg/mL.

From ChEMBL document CHEMBL3611970, “Synthesis and evaluation of isatin-β-thiosemicarbazones as novel agents against antibiotic-resistant Gram-positive bacterial species” (2015)
